Among the data in BindingDB's records for doi:10.1021/jm0209984 (Universit&#224, 2003) are EC50 values, retold here.

The structures appear in SMILES notation.

The assay can be described thus: Concentration required to achieve 50% protection of MT-4 cell from the HIV-1 induced cytopathogenicity was determined by the MTT method.
`O=C(c1ccc(Cl)cc1Cl)N(C(=S)OCCOc1ccccc1)c1ccccc1` [(2,4-Dichloro-benzoyl)-phenyl-thiocarbamic acid O-(2-phenoxy-ethyl) ester] showed an EC50 of 11.6 µM.

For the molecule `O=C1c2ccccc2C(=O)N1CCOC(=S)N(C(=O)c1cccs1)c1ccccc1Cl` [(2-Chloro-phenyl)-(thiophene-2-carbonyl)-thiocarbamic acid O-[2-(1,3-dioxo-1,3-dihydro-isoindol-2-yl)-ethyl] ester], the concentration for a half-maximal effect (EC50) amounted to 11 µM.

`CCc1ccccc1N(C(=O)c1cccs1)C(=S)OCCN1C(=O)c2ccccc2C1=O` [(2-Ethyl-phenyl)-(thiophene-2-carbonyl)-thiocarbamic acid O-[2-(1,3-dioxo-1,3-dihydro-isoindol-2-yl)-ethyl] ester]: a half-maximal response (EC50) required 11 µM.

Molecule `COc1ccccc1N(C(=O)c1cccs1)C(=S)OCCN1C(=O)c2ccccc2C1=O` [(2-Methoxy-phenyl)-(thiophene-2-carbonyl)-thiocarbamic acid O-[2-(1,3-dioxo-1,3-dihydro-isoindol-2-yl)-ethyl] ester] registered an EC50 of 11 µM.

Molecule `CC(COc1ccccc1)OC(=S)N(C(=O)COc1ccccc1)c1ccccc1` (configuration not stated) [(2-Phenoxy-acetyl)-phenyl-thiocarbamic acid O-(1-methyl-2-phenoxy-ethyl) ester] had an EC50 of 1.4 µM.

As to `O=C(COc1ccccc1)N(C(=S)OCCOc1ccccc1)c1ccccc1` [(2-Phenoxy-acetyl)-phenyl-thiocarbamic acid O-(2-phenoxy-ethyl) ester], a half-maximal response (EC50) required 6 µM.

`O=C(c1cc(Cl)cc(Cl)c1)N(C(=S)OCCOc1ccccc1)c1ccccc1` [(3,5-Dichloro-benzoyl)-phenyl-thiocarbamic acid O-(2-phenoxy-ethyl) ester] yielded an EC50 of 8.8 µM.

On to `CC(=O)c1cccc(N(C(=O)c2cccs2)C(=S)OCCN2C(=O)c3ccccc3C2=O)c1` [(3-Acetyl-phenyl)-(thiophene-2-carbonyl)-thiocarbamic acid O-[2-(1,3-dioxo-1,3-dihydro-isoindol-2-yl)-ethyl] ester], for which the half-maximal effective concentration (EC50) came to 6 µM.

The molecule `O=C1c2ccccc2C(=O)N1CCOC(=S)N(C(=O)c1cccs1)c1cccc(Br)c1` [(3-Bromo-phenyl)-(thiophene-2-carbonyl)-thiocarbamic acid O-[2-(1,3-dioxo-1,3-dihydro-isoindol-2-yl)-ethyl] ester] came in with an EC50 of 1.2 µM. This EC50 is about 5-fold lower than that of the molecule before.

Consider `CC(COc1ccccc1)OC(=S)N(C(=O)c1cccs1)c1cccc(Cl)c1` (configuration not stated) [(3-Chloro-phenyl)-(thiophene-2-carbonyl)-thiocarbamic acid O-(1-methyl-2-phenoxy-ethyl) ester], for which the response was half-maximal at 11 µM (EC50).

For the molecule `O=C1c2ccccc2C(=O)N1CCOC(=S)N(C(=O)c1cccs1)c1cccc(Cl)c1` [(3-Chloro-phenyl)-(thiophene-2-carbonyl)-thiocarbamic acid O-[2-(1,3-dioxo-1,3-dihydro-isoindol-2-yl)-ethyl] ester], the EC50 came out at 6 µM.

`O=C1c2ccccc2C(=O)N1CCOC(=S)N(C(=O)c1cccs1)c1cccc(F)c1` [(3-Fluoro-phenyl)-(thiophene-2-carbonyl)-thiocarbamic acid O-[2-(1,3-dioxo-1,3-dihydro-isoindol-2-yl)-ethyl] ester] had a concentration for a half-maximal effect (EC50) of 11 µM.

Molecule `COc1cccc(N(C(=O)c2cccs2)C(=S)OCCN2C(=O)c3ccccc3C2=O)c1` [(3-Methoxy-phenyl)-(thiophene-2-carbonyl)-thiocarbamic acid O-[2-(1,3-dioxo-1,3-dihydro-isoindol-2-yl)-ethyl] ester] gave an EC50 of 3.5 µM.

For `CC(COc1ccccc1)OC(=S)N(C(=O)c1cccc([N+](=O)[O-])c1)c1ccccc1` (configuration not stated) [(3-Nitro-benzoyl)-phenyl-thiocarbamic acid O-(1-methyl-2-phenoxy-ethyl) ester], a half-maximal effect (EC50) was put at 3.6 µM.

`O=C1c2ccccc2C(=O)N1CCOC(=S)N(C(=O)c1cccs1)c1cccc([N+](=O)[O-])c1` [(3-Nitro-phenyl)-(thiophene-2-carbonyl)-thiocarbamic acid O-[2-(1,3-dioxo-1,3-dihydro-isoindol-2-yl)-ethyl] ester]: the 50% effective concentration (EC50) worked out at 0.38 µM.

The molecule `O=C(c1ccc(Cl)c([N+](=O)[O-])c1)N(C(=S)OCCOc1ccccc1)c1ccccc1` [(4-Chloro-3-nitro-benzoyl)-phenyl-thiocarbamic acid O-(2-phenoxy-ethyl) ester] yielded a half-maximal effective concentration (EC50) of 7.6 µM.

`O=C(c1ccc(Cl)cc1)N(C(=S)OCCOc1ccccc1)c1ccccc1` [(4-Chloro-benzoyl)-phenyl-thiocarbamic acid O-(2-phenoxy-ethyl) ester] showed a concentration giving a half-maximal response (EC50) of 10.3 µM. This EC50 and that of the molecule before are within 1.5-fold of each other.

The molecule `O=C(c1ccc(Cl)cc1)N(C(=S)OCCc1ccccc1)c1ccccc1` [(4-Chloro-benzoyl)-phenyl-thiocarbamic acid O-phenethyl ester] registered a concentration for a half-maximal effect (EC50) of 4 µM. Compared with the last molecule, the EC50 is about 2.6-fold lower.

Consider `CC(COc1ccccc1)OC(=S)N(C(=O)c1cccs1)c1ccc(Cl)cc1` (configuration not stated) [(4-Chloro-phenyl)-(thiophene-2-carbonyl)-thiocarbamic acid O-(1-methyl-2-phenoxy-ethyl) ester], for which the EC50 is 11 µM.

`CCN(CC)c1ccc(N(C(=O)c2cccs2)C(=S)OCCN2C(=O)c3ccccc3C2=O)cc1` [(4-Diethylamino-phenyl)-(thiophene-2-carbonyl)-thiocarbamic acid O-[2-(1,3-dioxo-1,3-dihydro-isoindol-2-yl)-ethyl] ester] displayed a concentration for a half-maximal effect (EC50) of 11 µM.

`CCc1ccc(N(C(=O)c2ccco2)C(=S)OCCN2C(=O)c3ccccc3C2=O)cc1` [(4-Ethyl-phenyl)-(furan-2-carbonyl)-thiocarbamic acid O-[2-(1,3-dioxo-1,3-dihydro-isoindol-2-yl)-ethyl] ester] showed a half-maximal effective concentration (EC50) of 0.03 µM. This EC50 lies about 370-fold lower than the previous one.

For the molecule `O=C1c2ccccc2C(=O)N1CCOC(=S)N(C(=O)c1cccs1)c1ccc(F)cc1` [(4-Fluoro-phenyl)-(thiophene-2-carbonyl)-thiocarbamic acid O-[2-(1,3-dioxo-1,3-dihydro-isoindol-2-yl)-ethyl] ester], the EC50 is 0.1 µM.

As for `O=C1c2ccccc2C(=O)N1CCOC(=S)N(C(=O)c1cccs1)c1ccc(I)cc1` [(4-Iodo-phenyl)-(thiophene-2-carbonyl)-thiocarbamic acid O-[2-(1,3-dioxo-1,3-dihydro-isoindol-2-yl)-ethyl] ester], the EC50 came out at 0.01 µM.

As to `Cc1ccc(C(=O)N(C(=S)OCCOc2ccccc2)c2ccccc2)cc1` [(4-Methyl-benzoyl)-phenyl-thiocarbamic acid O-(2-phenoxy-ethyl) ester], a half-maximal response (EC50) required 9.9 µM.

The molecule `CC(COc1ccccc1)OC(=S)N(C(=O)c1cccs1)c1ccc([N+](=O)[O-])cc1` (configuration not stated) [(4-Nitro-phenyl)-(thiophene-2-carbonyl)-thiocarbamic acid O-(1-methyl-2-phenoxy-ethyl) ester] displayed a 50% effective concentration (EC50) of 6 µM.

With `O=C1c2ccccc2C(=O)N1CCOC(=S)N(C(=O)c1cccs1)c1ccc([N+](=O)[O-])cc1` [(4-Nitro-phenyl)-(thiophene-2-carbonyl)-thiocarbamic acid O-[2-(1,3-dioxo-1,3-dihydro-isoindol-2-yl)-ethyl] ester], the concentration for a half-maximal effect (EC50) was found to be 0.01 µM.

`O=C1c2ccccc2C(=O)N1CCOC(=S)N(C(=O)c1ccco1)c1ccc([N+](=O)[O-])cc1` [(Furan-2-carbonyl)-(4-nitro-phenyl)-thiocarbamic acid O-[2-(1,3-dioxo-1,3-dihydro-isoindol-2-yl)-ethyl] ester] yielded a concentration for a half-maximal effect (EC50) of 0.008 µM.
